From ChEMBL document CHEMBL5344418, “Recent developments in antimalarial activities of 4-aminoquinoline derivatives” (Eur J Med Chem, 2023)

What was measured:
[1] = Cytotoxicity against African green monkey Vero cells assessed as reduction in cell viability incubated for 24 hrs by fluorescence based analysis; assay type: toxicity; conditions: African green monkey (Chlorocebus sabaeus)
Plasmodium falciparum [2] = assay: Antimalarial activity against chloroquine-resistant Plasmodium falciparum K1 assessed as reduction in parasite growth incubated for 72 hrs by SYBR Green staining based fluorescence analysis; assay type: functional, organism-based; conditions: K1, 72 h
[3] = Cytotoxicity against African green monkey Vero cells assessed as reduction in cell viability incubated for 72 hrs by MTT assay; assay type: toxicity, cell-based; conditions: chlorocebus sabaeus
Plasmodium falciparum [4] = assay: Antimalarial activity against chloroquine-sensitive Plasmodium falciparum 3D7 assessed as reduction in parasite growth incubated for 72 hrs by SYBR Green staining based fluorescence analysis; assay type: functional, organism-based; conditions: 3D7, 72 h
Plasmodium falciparum [5] = assay: Antiplasmodial activity against chloroquine-resistant Plasmodium falciparum W2 assessed as parasitic growth inhibition incubated for 72 hrs by SYBR Green staining based fluorescence analysis; assay type: functional, organism-based; conditions: W2, 72 h
Hemozoin [6] = assay: Inhibition of Beta-hematin formation in Plasmodium falciparum K1 by spectrophotometric analysis
Hemozoin [7] = assay: Inhibition of Beta-hematin formation in Plasmodium falciparum 3D7 by spectrophotometric analysis
Plasmodium falciparum [8] = assay: Antiplasmodial activity against chloroquine-sensitive Plasmodium falciparum NF54 by lactate dehydrogenase assay; assay type: functional, organism-based
[9] = Cytotoxicity against Chinese hamster CHO cells assessed as reduction in cell viability by MTT assay; assay type: toxicity, cell-based; conditions: Chinese hamster (Cricetulus griseus)

IC50 (Hemozoin [6]) [nM]	IC50 (Hemozoin [7]) [nM]	SMILES	IC50 (Plasmodium falciparum [2]) [nM]	IC50 (Plasmodium falciparum [4]) [nM]	other results
		O=C1c2cccc(N3CCCCC3)c2C(=O)N1CCCCCCNc1ccnc2cc(Cl)ccc12			IC50 at 24 h [1]: 204000 nM
		CC(C)CC(CN1CCOCC1)N(C)c1ccnc2cc(C(F)(F)F)ccc12 (stereo not given)	2250	2720	CC50 at 72 h [3]: 68600 nM
		CCN(CC)CC(Cc1ccccc1)N(C)c1ccnc2cc(C(F)(F)F)ccc12 (stereo not given)		1750	
		CC(C)CC(CN1CCCC1)N(C)c1ccnc2cc(C(F)(F)F)ccc12 (stereo not given)	1600	1240	CC50 at 72 h [3]: 52000 nM
		O=C1c2cccc(N3CCOCC3)c2C(=O)N1CCCCNc1ccnc2cc(Cl)ccc12			IC50 at 24 h [1]: 108000 nM
		CC(C)CC(CN1CCN(C)CC1)N(C)c1ccnc2cc(Cl)ccc12 (stereo not given)	260	60	CC50 at 72 h [3]: 36600 nM
		CN(c1ccnc2cc(C(F)(F)F)ccc12)C(Cc1ccccc1)CN1CCCC1 (stereo not given)	1770	680	CC50 at 72 h [3]: 39200 nM
		OC(c1cc(C(F)(F)F)nc2c(C(F)(F)F)cccc12)C1CCCCN1 (stereo not given) [MEFLOQUINE]			IC50 (Plasmodium falciparum [5]): 24 nM
		O=C1c2ccc(N3CCCCC3)cc2C(=O)N1CCCCNc1ccnc2cc(Cl)ccc12			IC50 at 24 h [1]: 27000 nM
		O=C1c2ccc(N3CCN(CCO)CC3)cc2C(=O)N1CCNc1ccnc2cc(Cl)ccc12			IC50 at 24 h [1]: 26000 nM
		O=C1c2ccc(N3CCN(CCO)CC3)cc2C(=O)N1CCCCNc1ccnc2cc(Cl)ccc12			IC50 at 24 h [1]: 24600 nM
520	190	Clc1ccc2c(NCCn3cncc3C3CCCCC3)ccnc2c1			
460	5000	Cc1ccsc1-c1cncn1CCNc1ccnc2cc(Cl)ccc12			
450	210	FC(F)(F)c1ccc(-c2cncn2CCNc2ccnc3cc(Cl)ccc23)cc1			
920	5000	Clc1ccc2c(NCCn3cncc3-c3cccc4ccccc34)ccnc2c1			
		O=C1c2cccc(N3CCCCC3)c2C(=O)N1CCCCNc1ccnc2cc(Cl)ccc12			IC50 at 24 h [1]: 54100 nM
		CC(C)CC(CN1CCCCC1)N(C)c1ccnc2cc(Cl)ccc12 (stereo not given)	420	150	
		CC(C)CC(CN1CCCC1)N(C)c1ccnc2cc(Cl)ccc12 (stereo not given)	180	80	CC50 at 72 h [3]: 47000 nM
1700	5000	Clc1ccc2c(NCCn3cncc3-c3c[nH]c4ccccc34)ccnc2c1			
500	140	CC(C)(C)c1cncn1CCNc1ccnc2cc(Cl)ccc12			

IC50 (Hemozoin [6]) [nM]	IC50 (Hemozoin [7]) [nM]	SMILES	IC50 (Plasmodium falciparum [2]) [nM]	IC50 (Plasmodium falciparum [4]) [nM]	other results
		CCN(CC)CC(CC(C)C)N(C)c1ccnc2cc(Cl)ccc12 (stereo not given)	540	230	CC50 at 72 h [3]: 60300 nM
340	79	Clc1ccc2c(NCCn3cncc3C3CCCC3)ccnc2c1			
		CN(CCCN1CCCC1)c1ccnc2cc(Cl)ccc12	110	190	CC50 at 72 h [3]: 80200 nM
		CCN(CC)CC(Cc1ccccc1)N(C)c1ccnc2cc(Cl)ccc12 (stereo not given)	330	210	CC50 at 72 h [3]: 79000 nM
		CCN(CC)CC(CC(C)C)N(C)c1ccnc2cc(C(F)(F)F)ccc12 (stereo not given)	2500	3800	CC50 at 72 h [3]: 52000 nM
970	290	Clc1ccc2c(NCCn3cncc3-c3ccco3)ccnc2c1			
3040	5000	Fc1ccc(-c2cncn2CCNc2ccnc3cc(Cl)ccc23)cc1			
		O=C1c2cccc(N3CCOCC3)c2C(=O)N1CCCCCCNc1ccnc2cc(Cl)ccc12			IC50 at 24 h [1]: 50800 nM
		O=C(/C=C/c1ccccc1F)c1ccc(S(=O)(=O)NCCCNc2cncc3cc(Cl)ccc23)cc1			IC50 (Plasmodium falciparum [8]): 860 nM; IC50 [9]: 45500 nM
		O=C(/C=C/c1ccc(OC(F)(F)F)cc1)c1ccc(S(=O)(=O)NCCCNc2cncc3cc(Cl)ccc23)cc1			IC50 (Plasmodium falciparum [8]): 510 nM; IC50 [9]: 44000 nM
		COc1ccc(/C=C/C(=O)c2ccc(S(=O)(=O)NCCNc3cncc4cc(Cl)ccc34)cc2)cc1OC			IC50 (Plasmodium falciparum [8]): 330 nM; IC50 [9]: 45100 nM
		O=C(/C=C/c1ccc(F)c(F)c1)c1ccc(S(=O)(=O)NCCCNc2cncc3cc(Cl)ccc23)cc1			IC50 (Plasmodium falciparum [8]): 2580 nM; IC50 [9]: > 300000 nM
1780	5000	COc1ccc(-c2cncn2CCNc2ccnc3cc(Cl)ccc23)cc1			
		CN(CCCN1CCOCC1)c1ccnc2cc(C(F)(F)F)ccc12	820	880	CC50 at 72 h [3]: 200000 nM
		O=C(/C=C/c1ccccc1Cl)c1ccc(S(=O)(=O)NCCNc2cncc3cc(Cl)ccc23)cc1			IC50 (Plasmodium falciparum [8]): 370 nM; IC50 [9]: 35400 nM
1150	5000	Clc1ccc2c(NCCn3cncc3-c3ccc[nH]3)ccnc2c1			
2400	520	Clc1ccc2c(NCCn3cncc3-c3ccc4c(c3)OCCO4)ccnc2c1			
1090	5000	CN(C)c1ccc(-c2cncn2CCNc2ccnc3cc(Cl)ccc23)cc1			
		O=C1c2ccc(N3CCOCC3)cc2C(=O)N1CCCCCCNc1ccnc2cc(Cl)ccc12			IC50 at 24 h [1]: 25400 nM
		CN(c1ccnc2cc(Cl)ccc12)C(Cc1ccccc1)CN1CCOCC1 (stereo not given)	1380	1200	CC50 at 72 h [3]: 33500 nM

IC50 (Hemozoin [6]) [nM]	IC50 (Hemozoin [7]) [nM]	SMILES	IC50 (Plasmodium falciparum [2]) [nM]	IC50 (Plasmodium falciparum [4]) [nM]	other results
		CN(c1ccnc2cc(C(F)(F)F)ccc12)C(Cc1ccccc1)CN1CCOCC1 (stereo not given)		3890	
730	5000	N#Cc1ccc(-c2cncn2CCNc2ccnc3cc(Cl)ccc23)cc1			
		CN(c1ccnc2cc(C(F)(F)F)ccc12)C(Cc1ccccc1)CN1CCCCC1 (stereo not given)		1370	
		O=C(/C=C/c1ccccc1Br)c1ccc(S(=O)(=O)NCCCNc2cncc3cc(Cl)ccc23)cc1			IC50 (Plasmodium falciparum [8]): 100 nM; IC50 [9]: 43200 nM
290	2830	CC(C)c1ccc(-c2cncn2CCNc2ccnc3cc(Cl)ccc23)cc1			
		COc1ccc(/C=C/C(=O)c2ccc(S(=O)(=O)NCCCNc3cncc4cc(Cl)ccc34)cc2)cc1			IC50 (Plasmodium falciparum [8]): 110 nM; IC50 [9]: 43300 nM
		Cc1ccc(/C=C/C(=O)c2ccc(S(=O)(=O)NCCCNc3cncc4cc(Cl)ccc34)cc2)cc1			IC50 (Plasmodium falciparum [8]): 370 nM; IC50 [9]: 25100 nM
		O=C1c2ccc(N3CCN(CCO)CC3)cc2C(=O)N1CCCCCCNc1ccnc2cc(Cl)ccc12			IC50 at 24 h [1]: 23300 nM
		O=C1c2ccc(N3CCN(CCO)CC3)cc2C(=O)N1CCCNc1ccnc2cc(Cl)ccc12			IC50 at 24 h [1]: 25300 nM
		CC(C)CC(CN1CCOCC1)N(C)c1ccnc2cc(Cl)ccc12 (stereo not given)	1190	1160	CC50 at 72 h [3]: 50800 nM
		CN(c1ccnc2cc(Cl)ccc12)C(Cc1ccccc1)CN1CCCCC1 (stereo not given)	490	280	CC50 at 72 h [3]: 69700 nM
		O=C1c2ccc(N3CCOCC3)cc2C(=O)N1CCCCNc1ccnc2cc(Cl)ccc12			IC50 at 24 h [1]: 26900 nM
		CN(CCCN1CCCCC1)c1ccnc2cc(Cl)ccc12	60	40	CC50 at 72 h [3]: 107000 nM
1330	5000	Clc1ccc2c(NCCn3cncc3-c3ccc4ccccc4n3)ccnc2c1			
		CN(CCCN1CCCC1)c1ccnc2cc(C(F)(F)F)ccc12	310	90	CC50 at 72 h [3]: 78200 nM
		CN(c1ccnc2cc(Cl)ccc12)C(Cc1ccccc1)CN1CCCC1 (stereo not given)	100	60	CC50 at 72 h [3]: 57800 nM
2620	5000	Clc1ccc2c(NCCn3cncc3-c3cccc(Oc4ccccc4)c3)ccnc2c1			
5000	3790	Oc1ccc(-c2cncn2CCNc2ccnc3cc(Cl)ccc23)cc1			
		CC(C)CC(CN1CCCCC1)N(C)c1ccnc2cc(C(F)(F)F)ccc12 (stereo not given)	2040	2000	CC50 at 72 h [3]: 42600 nM
